# PubChem BioAssay (NCI)
#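 Following 48 hours of exposure in 96-well plates, responses at five concentrations were used to interpolate endpoints linearly. GI50 is the concentration that inhibits growth by half. TGI: concentration producing complete growth inhibition.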
# Key:
# Test in all cases: inhibition of tumour cell growth, NCI panel, 48 h
# [1] = tested on: A498 renal
# [2] = tested on: BT-549 breast
# [3] = tested on: COLO 205 colon
# [4] = tested on: HT29 colon
# [5] = tested on: KM12 colon
# [6] = tested on: M14 melanoma
# [7] = tested on: MCF7 breast
# [8] = tested on: SK-OV-3 ovarian
# [9] = tested on: SR leukemia
# [10] = tested on: SW-620 colon
SMILES,GI50 [1] [µM],TGI [1] [µM],GI50 [2] [µM],TGI [2] [µM],GI50 [3] [µM],TGI [3] [µM],GI50 [4] [µM],TGI [4] [µM],GI50 [5] [µM],TGI [5] [µM],GI50 [6] [µM],TGI [6] [µM],GI50 [7] [µM],TGI [7] [µM],GI50 [8] [µM],TGI [8] [µM],GI50 [9] [µM],TGI [9] [µM],GI50 [10] [µM],TGI [10] [µM]
COC(=O)C(Cc1ccccc1)N/C=C\C(=O)c1ccc(Cl)cc1 (stereo not given),31.1,75.8,28.1,> 100,32.5,> 100,35.1,> 100,21.2,47.1,19.1,44.7,26.2,66.4,26.7,92.4,48.1,> 100,31.7,97.2
Cc1ccc([N+](=O)[O-])c2c(NCCCN(C)C)ccnc12,–,> 100,–,> 100,–,31.8,–,> 90.7,–,> 100,–,> 100,–,> 100,–,–,–,> 100,–,> 100
C=CC(=O)Nc1cccc(Nc2nc(Nc3ccc(OCCOC)cc3)ncc2F)c1,0.306,1.66,0.718,8.23,2.39,11,2.6,16.3,3.43,15.6,1.12,12.7,2.54,17.2,0.533,3.17,3.41,> 100,2.14,22.3
Oc1ccc(Cc2ccccc2)c2cccnc12,25.6,> 100,2.33,26.7,7.74,> 100,22.5,> 100,2.07,27,1.51,10.6,7.46,> 100,3.43,> 100,0.673,> 100,3.39,54.8
CCCSc1cc(Cl)nc(N)n1,> 100,> 100,65.1,> 100,> 100,> 100,> 100,> 100,> 100,> 100,> 100,> 100,> 100,> 100,> 100,> 100,> 100,> 100,> 100,> 100
N#Cc1c(-c2ccccc2)nc2c(c(-c3ccccc3)nn2-c2ccccc2)c1-c1ccc(O)cc1,1.66,3.07,2,4.45,2.61,6.31,2.51,6.44,2.02,4.76,2.27,5.48,1.86,4.76,2.87,8.48,2.95,> 100,1.86,3.53
CN1CCN(Cc2ccc(NC(=O)c3ccc(C(C)(C)C)c(C#Cc4cnc5cccnn45)c3)cc2C(F)(F)F)CC1,7.18,23.4,15,28.9,1.8,3.43,1.68,3.4,0.861,2.38,1.8,3.44,1.82,3.46,11.3,24.4,0.199,0.512,2.04,4.09
CCn1c(-c2nonc2N)nc2ccc(F)cc21,13.6,> 25,> 25,> 25,> 25,> 25,> 25,> 25,> 25,> 25,> 25,> 25,> 25,> 25,> 25,> 25,> 25,> 25,> 25,> 25
CC(=O)[CH-]C(C)=O.CC(=O)[CH-]C(C)=O.N=CC=N.[Sn+2],9.97,22.4,2.76,8.25,2.02,3.61,3.41,10.8,2.94,8.49,2.41,5.7,2.63,12,8.74,21.7,1.06,5.3,1.71,3.11
CCCCCCNc1nc(NCCCCCC)c2[nH]c(NCCCCCC)nc2n1,1.2,10.5,7.47,25.1,1.32,2.76,5.59,18.8,8.01,21.1,14.1,27.9,3.22,15.8,24.8,> 74.1,0.582,3.43,3.04,12.3
Cc1sc(C)c(-c2ccc(CO)o2)c1-c1ccc(CO)o1,0.0205,0.0973,> 71.7,> 100,–,–,0.498,> 100,> 83.5,> 100,70.9,> 100,0.0787,> 100,16.5,> 100,> 77.9,> 100,0.499,> 100
CNC(=O)c1ccc(-c2cnc3ncc(Cc4ccc5ncccc5c4)n3n2)cc1F,> 100,> 100,> 100,> 100,> 100,> 100,> 100,> 100,> 100,> 100,–,–,> 100,> 100,> 100,> 100,> 100,> 100,> 100,> 100
